We go through one molecule from PMC9719519, “Non-classical ferroptosis inhibition by a small molecule targeting PHB2” (Nature Communications, 2022).

Holding throughout (experiment): biochemical
What all share (set-up): Eurofins recombinant human kinase profiling, remaining kinase activity as % of control, 10 uM ATP
What all share (details): ATP 10 uM; read-out: %Ctrl@10 μM

Experiment [1] addresses T1, DRAK2(h) (Homo sapiens, UniProt O94768).
T1 construct: gene STK17B
The method in brief:
(§1)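 Activity measured in a commercial panel of 401 recombinant human protein kinases run as a kinase profiling service.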

Experiment [2] concerns the target T2, CK1γ1(h) (Homo sapiens, UniProt Q9HCP0).
T2 construct: gene CSNK1G1
An outline of the steps:
as §1

The target of experiment [3] is HIPK2(h) (Homo sapiens, UniProt Q9H2X6). The method in brief:
as §1

Experiment [4] concerns the target T3, MRCKγ(h) (Homo sapiens, UniProt Q6DT37).
T3 construct: gene CDC42BPG
An outline of the steps: as §1

The target of experiment [5] is CDK2/cyclinE(h) (Homo sapiens, UniProt P24941). The method in brief:
as §1

The target of experiment [6] is T4, ZAP-70(h) (Homo sapiens, UniProt P43403).
T4 construct: gene ZAP70
An outline of the steps:
as §1

The target in experiment [7] is MAK(h) (Homo sapiens, UniProt P20794). The method in brief:
as §1

The target in experiment [8] is T5, ALK2(h) (Homo sapiens, UniProt Q04771).
T5 construct: gene ACVR1
An outline of the steps:
as §1

The target of experiment [9] is MAP4K5(h) (Homo sapiens, UniProt Q9Y4K4). The method in brief: as §1
Experiment [10] addresses JAK2(h) (Homo sapiens, UniProt O60674). An outline of the steps: as §1
Experiment [11] deals with EphA5(h) (Homo sapiens, UniProt P54756). The method in brief: as §1
Experiment [12] deals with T6, TAO2(h) (Homo sapiens, UniProt Q9UL54).
T6 construct: gene TAOK2
An outline of the steps:
as §1

The target of experiment [13] is ATM(h) (Homo sapiens, UniProt Q13315). The method in brief:
as §1

Experiment [14] deals with SGK2(h) (Homo sapiens, UniProt Q9HBY8). The method in brief:
as §1

The target of experiment [15] is Met(h) (Homo sapiens, UniProt P08581). An outline of the steps: as §1
For experiment [16], the target named is Ret (V804L)(h) (Homo sapiens, UniProt P07949, V804L). The method in brief: as §1
Experiment [17] concerns the target T7, CDK5/p25(h) (Homo sapiens, UniProt Q00535).
T7 construct: p25
An outline of the steps:
as §1

Experiment [18] concerns the target GRK3(h) (Homo sapiens, UniProt P35626). The method in brief:
as §1

The target in experiment [19] is JAK3(h) (Homo sapiens, UniProt P52333). The method in brief: as §1
Experiment [20] deals with T8, JNK2α2(h) (Homo sapiens, UniProt P45984).
T8 construct: gene MAPK9; isoform alpha2
The method in brief:
as §1

For experiment [21], the target named is EphA7(h) (Homo sapiens, UniProt Q15375). An outline of the steps: as §1
Experiment [22] has as its target NEK3(h) (Homo sapiens, UniProt P51956). An outline of the steps: as §1
The target of experiment [23] is T9, MST4(h) (Homo sapiens, UniProt Q9P289).
T9 construct: gene STK26
An outline of the steps: as §1

The structures appear in SMILES notation.

HIPK2(h), sequence (Q9H2X6 whole entry): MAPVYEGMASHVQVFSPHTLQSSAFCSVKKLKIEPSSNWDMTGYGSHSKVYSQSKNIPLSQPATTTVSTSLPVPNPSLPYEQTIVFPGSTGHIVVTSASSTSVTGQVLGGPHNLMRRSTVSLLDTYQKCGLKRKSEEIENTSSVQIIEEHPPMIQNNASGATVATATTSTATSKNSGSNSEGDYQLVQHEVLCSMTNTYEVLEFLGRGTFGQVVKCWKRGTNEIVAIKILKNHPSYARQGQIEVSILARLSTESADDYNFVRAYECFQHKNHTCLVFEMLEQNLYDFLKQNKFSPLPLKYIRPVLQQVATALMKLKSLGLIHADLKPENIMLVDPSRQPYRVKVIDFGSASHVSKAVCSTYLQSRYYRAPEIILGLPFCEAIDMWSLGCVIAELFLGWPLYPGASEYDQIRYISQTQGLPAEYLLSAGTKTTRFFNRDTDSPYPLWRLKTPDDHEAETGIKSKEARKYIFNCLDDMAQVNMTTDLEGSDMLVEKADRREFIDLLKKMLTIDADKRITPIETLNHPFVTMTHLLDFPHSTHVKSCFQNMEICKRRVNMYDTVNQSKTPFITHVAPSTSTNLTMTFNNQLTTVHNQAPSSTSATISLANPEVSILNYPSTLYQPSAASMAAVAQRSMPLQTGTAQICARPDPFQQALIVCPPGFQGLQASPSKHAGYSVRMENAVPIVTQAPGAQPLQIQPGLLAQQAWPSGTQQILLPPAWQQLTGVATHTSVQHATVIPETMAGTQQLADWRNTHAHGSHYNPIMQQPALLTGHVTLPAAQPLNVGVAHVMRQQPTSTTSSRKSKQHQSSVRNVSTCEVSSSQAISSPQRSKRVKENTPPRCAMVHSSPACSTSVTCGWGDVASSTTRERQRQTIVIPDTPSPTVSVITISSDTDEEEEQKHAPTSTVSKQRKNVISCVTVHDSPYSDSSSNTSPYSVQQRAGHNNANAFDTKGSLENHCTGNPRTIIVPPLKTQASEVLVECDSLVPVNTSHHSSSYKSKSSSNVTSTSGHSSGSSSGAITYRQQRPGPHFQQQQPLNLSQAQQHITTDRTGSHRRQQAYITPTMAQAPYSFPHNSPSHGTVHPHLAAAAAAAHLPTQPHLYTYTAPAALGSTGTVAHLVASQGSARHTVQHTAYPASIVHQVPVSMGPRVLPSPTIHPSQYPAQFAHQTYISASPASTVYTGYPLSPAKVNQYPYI
Met(h), sequence (P08581 whole entry): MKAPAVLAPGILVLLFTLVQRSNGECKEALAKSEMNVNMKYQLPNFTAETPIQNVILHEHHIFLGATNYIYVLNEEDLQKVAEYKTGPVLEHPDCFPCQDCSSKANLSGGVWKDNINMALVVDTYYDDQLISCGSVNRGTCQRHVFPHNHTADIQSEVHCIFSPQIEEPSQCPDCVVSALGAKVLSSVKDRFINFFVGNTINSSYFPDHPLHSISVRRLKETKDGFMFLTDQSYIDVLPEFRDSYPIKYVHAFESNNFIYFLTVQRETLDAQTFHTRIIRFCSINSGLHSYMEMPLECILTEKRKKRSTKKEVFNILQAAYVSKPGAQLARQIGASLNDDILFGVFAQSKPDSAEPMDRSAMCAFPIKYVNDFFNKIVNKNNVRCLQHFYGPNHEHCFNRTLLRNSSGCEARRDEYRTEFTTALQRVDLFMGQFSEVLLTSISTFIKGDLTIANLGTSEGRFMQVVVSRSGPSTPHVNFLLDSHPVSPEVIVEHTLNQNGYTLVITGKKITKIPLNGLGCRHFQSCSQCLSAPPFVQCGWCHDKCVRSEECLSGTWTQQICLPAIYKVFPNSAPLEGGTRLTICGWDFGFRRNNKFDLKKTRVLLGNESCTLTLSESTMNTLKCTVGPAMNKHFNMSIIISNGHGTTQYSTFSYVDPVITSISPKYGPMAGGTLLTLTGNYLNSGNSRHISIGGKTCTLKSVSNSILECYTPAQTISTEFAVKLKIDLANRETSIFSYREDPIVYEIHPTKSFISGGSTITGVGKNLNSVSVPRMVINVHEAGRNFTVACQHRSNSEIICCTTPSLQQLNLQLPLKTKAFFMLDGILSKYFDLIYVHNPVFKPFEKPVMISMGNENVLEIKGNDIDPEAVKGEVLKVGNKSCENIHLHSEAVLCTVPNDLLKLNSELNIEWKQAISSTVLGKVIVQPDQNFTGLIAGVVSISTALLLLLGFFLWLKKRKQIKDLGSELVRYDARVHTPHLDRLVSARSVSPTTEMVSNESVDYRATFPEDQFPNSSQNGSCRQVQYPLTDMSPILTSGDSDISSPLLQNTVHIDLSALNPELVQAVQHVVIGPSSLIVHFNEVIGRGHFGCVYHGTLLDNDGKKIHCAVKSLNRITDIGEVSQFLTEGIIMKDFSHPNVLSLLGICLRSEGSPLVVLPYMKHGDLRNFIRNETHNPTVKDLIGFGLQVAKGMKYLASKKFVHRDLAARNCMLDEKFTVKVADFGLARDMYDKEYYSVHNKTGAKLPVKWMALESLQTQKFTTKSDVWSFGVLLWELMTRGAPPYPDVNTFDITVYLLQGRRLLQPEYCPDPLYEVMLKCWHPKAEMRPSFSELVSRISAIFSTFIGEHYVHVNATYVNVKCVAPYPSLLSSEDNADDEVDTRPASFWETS
MAP4K5(h), sequence (Q9Y4K4 whole entry): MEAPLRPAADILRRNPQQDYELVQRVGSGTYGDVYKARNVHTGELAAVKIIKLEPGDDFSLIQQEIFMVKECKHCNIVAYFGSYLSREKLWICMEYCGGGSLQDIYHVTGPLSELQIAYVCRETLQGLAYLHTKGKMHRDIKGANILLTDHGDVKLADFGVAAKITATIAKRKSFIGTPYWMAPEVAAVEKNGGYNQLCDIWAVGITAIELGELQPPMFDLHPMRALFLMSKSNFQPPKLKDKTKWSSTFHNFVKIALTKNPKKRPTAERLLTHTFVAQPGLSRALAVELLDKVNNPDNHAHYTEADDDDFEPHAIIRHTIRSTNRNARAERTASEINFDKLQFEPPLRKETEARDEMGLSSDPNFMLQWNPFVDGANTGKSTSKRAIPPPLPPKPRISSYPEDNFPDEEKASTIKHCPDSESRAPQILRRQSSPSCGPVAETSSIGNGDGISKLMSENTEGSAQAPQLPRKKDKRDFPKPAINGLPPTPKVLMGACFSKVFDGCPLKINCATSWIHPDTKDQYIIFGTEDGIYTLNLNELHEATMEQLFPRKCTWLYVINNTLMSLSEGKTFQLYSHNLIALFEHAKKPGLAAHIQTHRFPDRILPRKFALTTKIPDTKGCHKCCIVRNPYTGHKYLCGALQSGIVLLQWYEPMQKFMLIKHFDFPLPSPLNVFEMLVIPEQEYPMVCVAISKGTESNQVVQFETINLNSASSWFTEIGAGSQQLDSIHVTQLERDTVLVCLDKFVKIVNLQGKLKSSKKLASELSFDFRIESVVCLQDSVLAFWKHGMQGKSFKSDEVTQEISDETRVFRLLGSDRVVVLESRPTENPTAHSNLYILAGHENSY
T9 sequence (Q9P289 whole entry): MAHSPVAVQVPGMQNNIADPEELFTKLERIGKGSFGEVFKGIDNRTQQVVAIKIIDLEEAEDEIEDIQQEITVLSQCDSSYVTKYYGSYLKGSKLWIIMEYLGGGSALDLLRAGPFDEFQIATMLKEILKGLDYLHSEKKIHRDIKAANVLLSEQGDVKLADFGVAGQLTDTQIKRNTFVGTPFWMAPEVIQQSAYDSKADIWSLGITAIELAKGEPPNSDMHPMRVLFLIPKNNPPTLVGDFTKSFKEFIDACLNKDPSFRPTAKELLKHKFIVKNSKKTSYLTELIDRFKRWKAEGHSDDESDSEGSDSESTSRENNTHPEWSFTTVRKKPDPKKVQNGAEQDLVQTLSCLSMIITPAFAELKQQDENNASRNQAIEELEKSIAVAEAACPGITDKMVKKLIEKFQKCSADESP
EphA5(h), sequence (P54756 whole entry): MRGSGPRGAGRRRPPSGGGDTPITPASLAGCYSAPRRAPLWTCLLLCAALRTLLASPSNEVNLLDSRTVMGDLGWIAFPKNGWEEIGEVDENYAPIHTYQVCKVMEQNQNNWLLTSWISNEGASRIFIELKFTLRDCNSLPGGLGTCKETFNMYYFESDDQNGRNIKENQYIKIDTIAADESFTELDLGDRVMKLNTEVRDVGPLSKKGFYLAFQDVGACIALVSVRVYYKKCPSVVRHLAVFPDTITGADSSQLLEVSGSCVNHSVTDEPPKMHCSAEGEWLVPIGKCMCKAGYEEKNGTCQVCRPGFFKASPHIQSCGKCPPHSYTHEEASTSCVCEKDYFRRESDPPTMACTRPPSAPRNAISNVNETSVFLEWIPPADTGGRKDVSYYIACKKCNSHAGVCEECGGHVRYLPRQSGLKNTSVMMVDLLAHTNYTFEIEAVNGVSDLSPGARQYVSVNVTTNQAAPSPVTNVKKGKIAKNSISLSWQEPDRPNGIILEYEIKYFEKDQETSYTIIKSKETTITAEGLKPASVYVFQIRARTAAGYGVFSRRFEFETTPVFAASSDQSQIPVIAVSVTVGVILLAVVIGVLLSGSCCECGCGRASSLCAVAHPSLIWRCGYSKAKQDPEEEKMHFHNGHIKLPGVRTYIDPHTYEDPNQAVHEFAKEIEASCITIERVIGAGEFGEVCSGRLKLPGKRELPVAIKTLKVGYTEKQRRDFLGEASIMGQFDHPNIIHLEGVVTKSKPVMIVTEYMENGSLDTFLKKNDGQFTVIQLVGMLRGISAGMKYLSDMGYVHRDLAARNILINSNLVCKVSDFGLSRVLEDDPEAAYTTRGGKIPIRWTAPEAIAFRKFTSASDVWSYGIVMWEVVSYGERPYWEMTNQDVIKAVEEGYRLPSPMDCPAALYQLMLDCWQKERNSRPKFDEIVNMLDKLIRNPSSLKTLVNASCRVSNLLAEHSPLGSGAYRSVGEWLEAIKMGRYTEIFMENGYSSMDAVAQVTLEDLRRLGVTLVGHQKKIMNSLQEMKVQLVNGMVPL

Take `C1=C(c2nc(-c3cnn(C4CCNCC4)c3)cn3cc(-c4ccccc4)nc23)CCOC1` [YL-939]: the remaining activity at 10 µM in experiment [1] was determined as 128%; in [2] it was 112%; in experiment [3] it was 90%; in experiment [4], 95%; in experiment [5], 85%; in [6], 97%. Besides, the remaining activity at 10 µM in [7] was determined as 74%; in [8], 88%; in experiment [9] it was 76%; in experiment [10], 90%; in [11] it was 96%; in experiment [12], 90%. In addition, the remaining activity at 10 µM stood at 86% in [13]; 96% in experiment [14]; 54% in experiment [15]; 81% in experiment [16]; 120% in experiment [17]; 92% in [18]. The remaining activity at 10 µM in [19] was determined as 91%; in experiment [20] it was 72%; in experiment [21], 99%; in [22] it was 102%; in experiment [23] it was 112%.
